Source: patent US20220257569A1, “INDOLE-OXADIAZOLE COMPOUNDS AND THEIR THERAPEUTIC USE” (THE GOVERNING COUNCIL OF THE UNIVERSITY OF TORONTO, priority 2018, published 2022)

Test system: GluN1KD mice
Test: Open field test in GluN1KD mice and WT littermates
Format: in vivo
Settings: 10 mg/kg; for Locomotor Activity (total distance traveled) / Stereotypy (total stereotypic movements) / Vertical Activity (total): mean±SEM
Excerpt: Functional NMDARs are composed of a common GluN1 subunit and one of four GluN2 subunits (GluN2A-GluN2D) combined in an undetermined ratio to make the heteromeric receptor complex. Recent studies using post mortem prefrontal cortex samples from patients with SCZ and depression, display a series of changes in NMDAR regulation. Endocannabinoids, via CB1Rs, control the presence of NR1 C1 subunits in the neural membrane which has implications for psychosis and SCZ. […] The GluN1KD (NMDAR hypofunction model) mouse line expresses 5-10% of the normal level of the subunit. GluN1KD mice display behavioural abnormalities that have been related to SCZ; these behaviours are normalized by the antipsychotics haloperidol and clozapine. At the dopamine level, GluN1KD mice have remodelled dopamine neurons, leading to a state of hyperdopaminergia, manifesting as an increase in tonic firing rates of dopaminergic neurons (Ferris et al., 2014).
Adult (>P70) GluN1-knockdown (GluN1KD—F1: C571Bl/6J x 129S1/SvlmJ) and DAT-knockout (DATKO—C57Bl/6J), balanced for sex, were treated with either vehicle (1:1:18-Tween80:95% ethanol:saline) or a novel CB1 negative allosteric modulator (CB1 NAM), ABM300, at 10 mg/kg, was tested in behavioural assays, and compared to littermate controls. Locomotor, stereotypic movements and vertical activity were tested, along with anxiety/mania and sensorimotor gating behaviours. All data were analyzed with two- or three-way ANOVA, as appropriate, and corrected for multiple comparisons.
Classically, locomotor output has been used as a gold standard for the measure of dopamine system dysfunction. The role of dopamine in movement control is well defined and, in its simplest forms, testing for hyperactivity is based on the premise that enhanced dopaminergic activity in rodents leads to enhanced motor activity (van den Buuse et al., 2010). Locomotor, stereotypic and vertical activity was recorded using digital activity monitors, quantifying horizontal and vertical activity, along with repetitive behaviour, via infrared beam breaks. GluN1 KD and DATKO display basal hyperactivity, with increases in stereotypic behaviours which can be ameliorated with antipsychotics (Peleg-Raibstein et al., 2008).

[1] = WT (F1: C57Bl/6J x 129S1/SvlmJ) mice, open field

## CCc1c(-c2nnc(Nc3ccccc3)o2)[nH]c2ccc(Cl)cc12 [ABM300, 5-(5-Chloro-3-ethyl-1H-indol-2-yl)-N-phenyl-1,3,4-oxadiazol-2-amine]
GluN1KD mice
  effect on hyperactivity (in words): reduces hyperactivity
GluN1KD mice, open field
  effect on abnormal stereotypic behaviours (in words): reduces abnormal stereotypic behaviours
  effect on abnormal vertical exploration (risk-taking behaviour) (in words): reduces abnormal vertical exploration
  Locomotor Activity (total distance traveled): 5857 ± 1242 cm
  Stereotypy (total stereotypic movements): 891 ± 93
  Vertical Activity (total): 479 ± 142
[1]
  Locomotor Activity (total distance traveled): 688 ± 193 cm
  Stereotypy (total stereotypic movements): 298.80 ± 45
  Vertical Activity (total): 43.91 ± 26
